Test results: patent US20240374573A1, “IMIDAZOLE CONTAINING COMPOUNDS, DERIVATIVES THEREFORE, AND USES THEREOF” (AglaeaPharma Inc., priority 2023, published 2024)

Molecular target: T1, α2AAR (Homo sapiens, UniProt P08913)
T1 construct: host or cells: HEK293 (membranes)
T1 sequence (P08913 1-465): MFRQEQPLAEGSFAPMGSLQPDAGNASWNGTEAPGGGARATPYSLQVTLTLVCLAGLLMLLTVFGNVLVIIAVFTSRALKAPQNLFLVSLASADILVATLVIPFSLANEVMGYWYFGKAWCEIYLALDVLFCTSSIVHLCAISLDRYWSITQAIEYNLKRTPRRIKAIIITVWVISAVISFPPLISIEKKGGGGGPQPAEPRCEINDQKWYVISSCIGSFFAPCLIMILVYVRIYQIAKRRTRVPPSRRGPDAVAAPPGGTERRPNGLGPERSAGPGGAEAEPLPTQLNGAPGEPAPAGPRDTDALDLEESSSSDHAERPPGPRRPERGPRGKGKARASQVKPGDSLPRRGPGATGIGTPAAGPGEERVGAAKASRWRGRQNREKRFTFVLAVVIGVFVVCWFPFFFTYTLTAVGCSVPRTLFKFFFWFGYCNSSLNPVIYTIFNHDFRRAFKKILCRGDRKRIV
Assay: α2AAR binding assay ([3H]-RX 821002 radioligand)
Details: [3H]-RX 821002 0.5 nM, HEK293 membranes; read-out: α2A affinity (Ki)

| Ki [nM] | Compound |
| --- | --- |
| < 10 | Cc1cccc(C(c2c[nH]cn2)c2cccc(C(=O)NCC3CCOCC3)c2O)c1C (stereo not drawn) [compound 138] |
| 10 to 50 | Cc1cccc(C(c2cccc(NC(=O)CC[N+](C)(C)C)c2)c2c[nH]cn2)c1C (stereo not drawn) [compound 141] |
| < 10 | Cc1cccc(C(Cc2ccc(NS(=O)(=O)C3CCOCC3)cc2)c2c[nH]cn2)c1C (stereo not drawn) [compound 158] |
| < 10 | Cc1cccc(C(Cc2ccc(C(N)=O)cc2)c2c[nH]cn2)c1C (stereo not drawn) [compound 163] |
| < 10 | Cc1cccc(C(Cc2ccc(NC(=O)CC3CCOCC3)cc2)c2c[nH]cn2)c1C (stereo not drawn) [compound 165] |
| 10 to 50 | Cc1cccc(C(Cc2ccc(C(=O)NC3CCOCC3)nc2)c2c[nH]cn2)c1C (stereo not drawn) [compound 186] |
| < 10 | Cc1cccc(C(Cc2ccc(C(=O)NC3CCOCC3)c(F)c2)c2c[nH]cn2)c1C (stereo not drawn) [compound 187] |
| < 10 | CC(=O)Nc1ccc(CC(c2c[nH]cn2)c2cccc(C)c2C)cc1 (stereo not drawn) [compound 190] |
| < 10 | Cc1cccc(C(Cc2ccc(NC(=O)C3COC3)cc2)c2c[nH]cn2)c1C (stereo not drawn) [compound 200] |
| < 10 | Cc1cccc(C(Cc2ccc(NC(=O)NC3CCOCC3)cc2)c2c[nH]cn2)c1C (stereo not drawn) [compound 205] |
| < 10 | Cc1cccc(C(Cc2ccc(S(N)(=O)=O)c(F)c2)c2c[nH]cn2)c1C (stereo not drawn) [compound 208] |
| < 10 | COc1cc(CC(c2c[nH]cn2)c2cccc(C)c2C)ccc1C(=O)NC1CCOCC1 (stereo not drawn) [compound 213] |
| < 10 | Cc1cccc(C(Cc2ccc(NC(=O)NC3COC3)cc2)c2c[nH]cn2)c1C (stereo not drawn) [compound 214] |
| < 10 | CNC(=O)c1ccc(CC(c2c[nH]cn2)c2cccc(C)c2C)cc1 (stereo not drawn) [compound 215] |
| < 10 | Cc1cccc(C(Cc2ccc(C(=O)N(C)C)cc2)c2c[nH]cn2)c1C (stereo not drawn) [compound 216] |
| < 10 | Cc1cccc(C(Cc2ccc(S(N)(=O)=O)cc2)c2c[nH]cn2)c1C (stereo not drawn) [compound 217] |
| < 10 | Cc1cccc(C(Cc2ccc(C(=O)NO)cc2)c2c[nH]cn2)c1C (stereo not drawn) [compound 219] |
| < 10 | CCc1cscc1C(c1cccc(NS(C)(=O)=O)c1)c1c[nH]cn1 (stereo not drawn) [compound 401] |

Molecular target: T2, α2AAR (α2A-adrenergic receptor) (Homo sapiens, UniProt P08913)
T2 construct: expressed in transfected cells; host or cells: HEK293
T2 sequence (P08913 1-465): T1 sequence (P08913 1-465)
Assay: α2AAR FLIPR assay (agonist activity)
Format: cell-based
Details: FLIPR, α2AAR cell line hosted in HEK293 cells; read-out: α2A agonist activity (EC50)
Procedure, shortened: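 HEK293 cells expressing α2AAR loaded with Fluo-4 Direct plus probenecid for 50 min at 37° C and 10 min at room temperature, then treated with serially diluted compounds.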

| EC50 [nM] | Compound |
| --- | --- |
| 10 to 50 | Cc1cccc(C(c2c[nH]cn2)c2cccc(C(=O)NCC3CCOCC3)c2O)c1C (stereo not drawn) [compound 138] |
| 50 to 250 | Cc1cccc(C(c2cccc(NC(=O)CC[N+](C)(C)C)c2)c2c[nH]cn2)c1C (stereo not drawn) [compound 141] |
| 10 to 50 | Cc1cccc(C(Cc2ccc(NS(=O)(=O)C3CCOCC3)cc2)c2c[nH]cn2)c1C (stereo not drawn) [compound 158] |
| 10 to 50 | Cc1cccc(C(Cc2ccc(C(N)=O)cc2)c2c[nH]cn2)c1C (stereo not drawn) [compound 163] |
| < 10 | Cc1cccc(C(Cc2ccc(NC(=O)CC3CCOCC3)cc2)c2c[nH]cn2)c1C (stereo not drawn) [compound 165] |
| 10 to 50 | Cc1cccc(C(Cc2ccc(C(=O)NC3CCOCC3)nc2)c2c[nH]cn2)c1C (stereo not drawn) [compound 186] |
| 10 to 50 | Cc1cccc(C(Cc2ccc(C(=O)NC3CCOCC3)c(F)c2)c2c[nH]cn2)c1C (stereo not drawn) [compound 187] |
| 10 to 50 | CC(=O)Nc1ccc(CC(c2c[nH]cn2)c2cccc(C)c2C)cc1 (stereo not drawn) [compound 190] |
| 10 to 50 | Cc1cccc(C(Cc2ccc(NC(=O)C3COC3)cc2)c2c[nH]cn2)c1C (stereo not drawn) [compound 200] |
| 10 to 50 | Cc1cccc(C(Cc2ccc(NC(=O)NC3CCOCC3)cc2)c2c[nH]cn2)c1C (stereo not drawn) [compound 205] |
| < 10 | Cc1cccc(C(Cc2ccc(S(N)(=O)=O)c(F)c2)c2c[nH]cn2)c1C (stereo not drawn) [compound 208] |
| < 10 | COc1cc(CC(c2c[nH]cn2)c2cccc(C)c2C)ccc1C(=O)NC1CCOCC1 (stereo not drawn) [compound 213] |
| 10 to 50 | Cc1cccc(C(Cc2ccc(NC(=O)NC3COC3)cc2)c2c[nH]cn2)c1C (stereo not drawn) [compound 214] |
| < 10 | CNC(=O)c1ccc(CC(c2c[nH]cn2)c2cccc(C)c2C)cc1 (stereo not drawn) [compound 215] |
| < 10 | Cc1cccc(C(Cc2ccc(C(=O)N(C)C)cc2)c2c[nH]cn2)c1C (stereo not drawn) [compound 216] |
| < 10 | Cc1cccc(C(Cc2ccc(S(N)(=O)=O)cc2)c2c[nH]cn2)c1C (stereo not drawn) [compound 217] |
| < 10 | Cc1cccc(C(Cc2ccc(C(=O)NO)cc2)c2c[nH]cn2)c1C (stereo not drawn) [compound 219] |
| 10 to 50 | CCc1cscc1C(c1cccc(NS(C)(=O)=O)c1)c1c[nH]cn1 (stereo not drawn) [compound 401] |

Molecular target: P-glycoprotein (P-gp, MDR1) (Homo sapiens, UniProt P08183)
Sequence (P08183 whole entry): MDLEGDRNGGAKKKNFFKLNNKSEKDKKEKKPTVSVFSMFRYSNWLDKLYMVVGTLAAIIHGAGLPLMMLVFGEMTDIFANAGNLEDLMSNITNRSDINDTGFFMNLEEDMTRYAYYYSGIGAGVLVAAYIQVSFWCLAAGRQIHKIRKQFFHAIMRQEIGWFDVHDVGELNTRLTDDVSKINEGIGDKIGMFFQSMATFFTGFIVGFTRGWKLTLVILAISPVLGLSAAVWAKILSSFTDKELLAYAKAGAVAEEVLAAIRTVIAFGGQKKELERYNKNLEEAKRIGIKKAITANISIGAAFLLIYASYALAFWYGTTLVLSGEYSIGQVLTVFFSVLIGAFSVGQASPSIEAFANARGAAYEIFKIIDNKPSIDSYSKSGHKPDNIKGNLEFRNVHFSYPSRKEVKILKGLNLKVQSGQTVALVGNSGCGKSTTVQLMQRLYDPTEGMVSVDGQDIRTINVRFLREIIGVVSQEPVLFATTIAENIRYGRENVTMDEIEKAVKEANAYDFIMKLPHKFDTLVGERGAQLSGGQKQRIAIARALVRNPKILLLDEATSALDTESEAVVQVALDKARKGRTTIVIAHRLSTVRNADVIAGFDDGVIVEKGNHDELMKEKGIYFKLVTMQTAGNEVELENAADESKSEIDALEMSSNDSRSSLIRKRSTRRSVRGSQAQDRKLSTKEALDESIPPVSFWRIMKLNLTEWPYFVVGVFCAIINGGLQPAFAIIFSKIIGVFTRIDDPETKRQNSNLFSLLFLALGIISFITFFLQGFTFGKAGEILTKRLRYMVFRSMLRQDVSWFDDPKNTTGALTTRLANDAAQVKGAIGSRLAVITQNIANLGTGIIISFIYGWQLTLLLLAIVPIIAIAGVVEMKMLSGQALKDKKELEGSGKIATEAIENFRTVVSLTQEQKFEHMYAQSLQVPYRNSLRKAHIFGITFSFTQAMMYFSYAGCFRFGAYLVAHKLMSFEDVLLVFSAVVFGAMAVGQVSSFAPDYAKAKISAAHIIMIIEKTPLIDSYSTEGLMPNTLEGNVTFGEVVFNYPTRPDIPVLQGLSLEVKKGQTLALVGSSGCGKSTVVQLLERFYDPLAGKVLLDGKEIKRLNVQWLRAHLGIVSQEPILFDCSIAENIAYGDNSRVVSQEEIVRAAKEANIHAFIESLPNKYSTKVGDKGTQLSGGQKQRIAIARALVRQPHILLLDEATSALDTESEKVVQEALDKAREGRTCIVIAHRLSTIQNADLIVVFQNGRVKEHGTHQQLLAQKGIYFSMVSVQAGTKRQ
Assay: in vitro
Details: dog, MDCK-MDR1, pH 7.4
Description: MDR1-MDCK II cells (obtained from Piet Borst at the Netherlands Cancer Institute) were seeded onto Polycarbonate membranes (PC) in 96-well insert systems at 3.33×10^5 cells/mL until to 4-7 days for confluent cell monolayer formation.
Selected α2AR agonist from table 3s were diluted with the transport buffer (HBSS with 10.0 mM Hepes, pH7.4) from DMSO stock solution to a concentration of 2 μM (DMSO<1%) and applied to the apical or basolateral side of the cell monolayer. […] Permeation of the test compounds from A to B direction and/or B to A direction was determined in duplicate. Digoxin was tested at 10.0 μM from A to B direction and B to A direction in duplicate. The plate was incubated for 2.5 hours in CO2 incubator at 37.0±1.0° C., with 5.0% CO2 at saturated humidity without shaking. In addition, the efflux ratio of each compound was also determined. Test and reference compounds were quantified by LC/MS/MS analysis based on the peak area ratio of analyte/IS.
After transport assay, lucifer yellow rejection assay was applied to determine the cell monolayer integrity. Buffers were removed from both apical and basolateral chambers, followed by the addition of 75 μL of 100 μM lucifer yellow in transport buffer and 250 μL transport buffer in apical and basolateral chambers, respectively. The plate was incubated for 30 minutes at 37.0° C. with 5.0% CO2 and 95.0% relative humidity without shaking. After 30 minutes incubation, 20 μL of lucifer yellow samples were taken from the apical sides, followed by the addition of 60 μL of transport Buffer. And then 80 μL of lucifer yellow samples were taken from the basolateral sides. The relative fluorescence unit (RFU) of lucifer yellow was measured at 425/528 nm (excitation/emission) with an Envision plate reader.
The apparent permeability coefficient Papp (cm/s) was calculated using the equation: […]
wherein dCr/dt is the cumulative concentration of compound in the receiver chamber as a function of time (μM/s); Vr is the solution volume in the receiver chamber (0.075 mL on the apical side, 0.25 mL on the basolateral side); A is the surface area for the transport, i.e. 0.143 cm2 for the area of the monolayer; and C0 is the initial concentration in the donor chamber (μM).
The efflux ratio was calculated using the equation: […]

| efflux ratio at 2.5 h, 2 μM | Compound |
| --- | --- |
| 7.85 | Cc1cccc(C(c2c[nH]cn2)c2cccc(C(=O)NCC3CCOCC3)c2O)c1C (stereo not drawn) [compound 138] |
| 2.61 | Cc1cccc(C(c2cccc(NC(=O)CC[N+](C)(C)C)c2)c2c[nH]cn2)c1C (stereo not drawn) [compound 141] |
| 23.7 | Cc1cccc(C(Cc2ccc(NS(=O)(=O)C3CCOCC3)cc2)c2c[nH]cn2)c1C (stereo not drawn) [compound 158] |
| 9.08 | Cc1cccc(C(Cc2ccc(C(N)=O)cc2)c2c[nH]cn2)c1C (stereo not drawn) [compound 163] |
| 14.8 | Cc1cccc(C(Cc2ccc(NC(=O)CC3CCOCC3)cc2)c2c[nH]cn2)c1C (stereo not drawn) [compound 165] |
| 3.38 | Cc1cccc(C(Cc2ccc(C(=O)NC3CCOCC3)nc2)c2c[nH]cn2)c1C (stereo not drawn) [compound 186] |
| 2.6 | Cc1cccc(C(Cc2ccc(C(=O)NC3CCOCC3)c(F)c2)c2c[nH]cn2)c1C (stereo not drawn) [compound 187] |
| 4.91 | CC(=O)Nc1ccc(CC(c2c[nH]cn2)c2cccc(C)c2C)cc1 (stereo not drawn) [compound 190] |
| 27.7 | Cc1cccc(C(Cc2ccc(NC(=O)C3COC3)cc2)c2c[nH]cn2)c1C (stereo not drawn) [compound 200] |
| 61.8 | Cc1cccc(C(Cc2ccc(NC(=O)NC3CCOCC3)cc2)c2c[nH]cn2)c1C (stereo not drawn) [compound 205] |
| 8.88 | Cc1cccc(C(Cc2ccc(S(N)(=O)=O)c(F)c2)c2c[nH]cn2)c1C (stereo not drawn) [compound 208] |
| 4.92 | COc1cc(CC(c2c[nH]cn2)c2cccc(C)c2C)ccc1C(=O)NC1CCOCC1 (stereo not drawn) [compound 213] |
| 56.1 | Cc1cccc(C(Cc2ccc(NC(=O)NC3COC3)cc2)c2c[nH]cn2)c1C (stereo not drawn) [compound 214] |
| 4.77 | CNC(=O)c1ccc(CC(c2c[nH]cn2)c2cccc(C)c2C)cc1 (stereo not drawn) [compound 215] |
| 3.21 | Cc1cccc(C(Cc2ccc(C(=O)N(C)C)cc2)c2c[nH]cn2)c1C (stereo not drawn) [compound 216] |
| 17.5 | Cc1cccc(C(Cc2ccc(S(N)(=O)=O)cc2)c2c[nH]cn2)c1C (stereo not drawn) [compound 217] |
| 26.9 | Cc1cccc(C(Cc2ccc(C(=O)NO)cc2)c2c[nH]cn2)c1C (stereo not drawn) [compound 219] |
| 22 | CCc1cscc1C(c1cccc(NS(C)(=O)=O)c1)c1c[nH]cn1 (stereo not drawn) [compound 401] |
